Results on nine molecules are retold here after patent US9963464B2, “Macrocyclic compounds” (Bayer Pharma Aktiengesellschaft, priority 2014, dated 2018).

One experiment deals with T1, CDK9/CycT1 (Homo sapiens, UniProt P50750).
T1 construct: Recombinant full-length His-tagged human CDK9 and CycT1; His; purchased Invitrogen PV4131; host or cells: insect cells
As to the kind of experiment: CDK9/CycT1 high ATP kinase assay (TR-FRET, Method 1b). The experiment is classed as biochemical. To be noted: for IC50: Method 1b, 2 mM ATP; for Selectivity high ATP CDK9 over high ATP CDK2: IC50 (high ATP CDK2)/IC50 (high ATP CDK9): Methods 1b and 2b, minimal values where CDK9 IC50 is at the assay limit. As to the method: 1b. CDK9/CycT1 High ATP Kinase Assay
CDK9/CycT1-inhibitory activity of compounds of the present invention at a high ATP concentration after preincubation of enzyme and test compounds was quantified employing the CDK9/CycT1 TR-FRET assay as described in the following paragraphs.
Recombinant full-length His-tagged human CDK9 and CycT1, expressed in insect cells and purified by Ni-NTA affinity chromatography, were purchase from Invitrogen (Cat. No PV4131). As substrate for the kinase reaction biotinylated peptide biotin-Ttds-YISPLKSPYKISEG (C-terminus in amid form) was used which can be purchased e.g. from the company JERINI peptide technologies (Berlin, Germany). For the assay 50 nl of a 100 fold concentrated solution of the test compound in DMSO was pipetted into a black low volume 384 well microtiter plate (Greiner Bio-One, Frickenhausen, Germany), 2 μl of a solution of CDK9/CycT1 in aqueous assay buffer [50 mM Tris/HCl pH 8.0, 10 mM MgCl2, 1.0 mM dithiothreitol, 0.1 mM sodium ortho-vanadate, 0.01% (v/v) Nonidet-P40 (Sigma)] were added and the mixture was incubated for 15 min at 22° C. to allow pre-binding of the test compounds to the enzyme before the start of the kinase reaction. […] The concentration of CDK9/CycT1 was adjusted depending of the activity of the enzyme lot and was chosen appropriate to have the assay in the linear range, typical concentrations were in the range of 0.5 μg/mL. The reaction was stopped by the addition of 5 μl of a solution of TR-FRET detection reagents (0.2 μM streptavidine-XL665 [Cisbio Bioassays, Codolet, France] and 1 nM anti-RB(pSer807/pSer811)-antibody from BD Pharmingen [#558389] and 1.2 nM LANCE EU-W1024 labeled anti-mouse IgG antibody [Perkin-Elmer, product no. AD0077]) in an aqueous EDTA-solution (100 mM EDTA, 0.2% (w/v) bovine serum albumin in 100 mM HEPES pH 7.5).
The resulting mixture was incubated 1 h at 22° C. to allow the formation of complex between the phosphorylated biotinylated peptide and the detection reagents. Subsequently the amount of phosphorylated substrate was evaluated by measurement of the resonance energy transfer from the Eu-chelate to the streptavidine-XL. Therefore, the fluorescence emissions at 620 nm and 665 nm after excitation at 350 nm was measured in a HTRF reader, e.g. a Rubystar (BMG Labtechnologies, Offenburg, Germany) or a Viewlux (Perkin-Elmer). The ratio of the emissions at 665 nm and at […] was taken as the measure for the amount of phosphorylated substrate. The data were normalised (enzyme reaction without inhibitor=0% inhibition, all other assay components but no enzyme=100% inhibition).

The next experiment concerns HeLa-MaTu-ADR cells. In words: Proliferation assay HeLa-MaTu-ADR. The experiment is classed as cell-based, human. To be noted: 4 days, crystal violet, read-out: Inhibition of HeLa-MaTu-ADR cell proliferation IC50. As to the method: (§1) Cultivated tumour cells (HeLa, human cervical tumour cells, ATCC CCL-2; NCI-H460, human non-small cell lung carcinoma cells, ATCC HTB-177; A2780, human ovarian carcinoma cells, ECACC #93112519; DU 145, hormone-independent human prostate carcinoma cells, ATCC HTB-81; HeLa-MaTu-ADR, multidrug-resistant human cervical carcinoma cells, EPO-GmbH Berlin; Caco-2, human colorectal carcinoma cells, ATCC HTB-37; B16F10, mouse melanoma cells, ATCC CRL-6475) were plated at a density of 5,000 cells/well (DU145, HeLa-MaTu-ADR), 3,000 cells/well (NCI-H460, HeLa), 2,500 cells/well (A2780), 1,500 cells/well (Caco-2), or 1,000 cells/well (B16F10) in a 96-well multititer plate in 200 μL of their respective growth medium supplemented 10% fetal calf serum. After 24 hours, the cells of one plate (zero-point plate) were stained with crystal violet (see below), while the medium of the other plates was replaced by fresh culture medium (200 μl), to which the test substances were added in various concentrations (0 μM, as well as in the range of 0.001-10 μM). The cells were incubated for 4 days in the presence of test substances. Cell proliferation was determined by staining the cells with crystal violet: the cells were fixed by adding 20 μl/measuring point of an 11% glutaric aldehyde solution for 15 minutes at room temperature. After three washing cycles of the fixed cells with water, the plates were dried at room temperature. The cells were stained by adding 100 μl/measuring point of a 0.1% crystal violet solution (pH 3.0). After three washing cycles of the stained cells with water, the plates were dried at room temperature. The dye was dissolved by adding 100 μl/measuring point of a 10% acetic acid solution. The extinction was determined by photometry at a wavelength of 595 nm. The change of cell number, in percent, was calculated by normalization of the measured values to the extinction values of the zero-point plate (=0%) and the extinction of the untreated (0 μm) cells (=100%). The IC50 values (inhibitory concentration at 50% of maximal effect) were determined by means of a 4 parameter fit. Non-adherent MOLM-13 human acute myeloid leukemia cells (DSMZ ACC 554) were seeded at a density of 5,000 cells/well in a 96-well multititer plate in 100 μL of growth medium supplemented 10% fetal calf serum. After 24 hours, cell viability of one plate (zero-point plate) was determined with the Cell Titre-Glo Luminescent Cell Viability Assay (Promega), while 50 μL of test compound containing medium was added to the wells of the other plates (final concentrations in the range of 0.001-1 μM and DMSO controls). Cell viability was assessed after 72-hour exposure with the Cell Titre-Glo Luminescent Cell Viability Assay (Promega). IC50 values (inhibitory concentration at 50% of maximal effect) were determined by means of a 4 parameter fit on measurement data which were normalized to vehicle (DMSO) treated cells (=100%) and measurement readings taken immediately before compound exposure (=0%).

The test system of the next experiment is NCI-H460 cells. As to the kind of experiment: Proliferation assay NCI-H460. The experiment is classed as cell-based, human. The note with it: 4 days, crystal violet, read-out: Inhibition of NCI-H460 cell proliferation IC50. How it is done: as §1
The test system of the next experiment is DU145 cells. In words: Proliferation assay DU145. To be noted: 4 days, crystal violet, read-out: Inhibition of DU145 cell proliferation IC50. The experiment is classed as cell-based, human. As to the method: as §1

Where two headings read alike, the source gives them in different places.

T1 sequence (P50750 whole entry): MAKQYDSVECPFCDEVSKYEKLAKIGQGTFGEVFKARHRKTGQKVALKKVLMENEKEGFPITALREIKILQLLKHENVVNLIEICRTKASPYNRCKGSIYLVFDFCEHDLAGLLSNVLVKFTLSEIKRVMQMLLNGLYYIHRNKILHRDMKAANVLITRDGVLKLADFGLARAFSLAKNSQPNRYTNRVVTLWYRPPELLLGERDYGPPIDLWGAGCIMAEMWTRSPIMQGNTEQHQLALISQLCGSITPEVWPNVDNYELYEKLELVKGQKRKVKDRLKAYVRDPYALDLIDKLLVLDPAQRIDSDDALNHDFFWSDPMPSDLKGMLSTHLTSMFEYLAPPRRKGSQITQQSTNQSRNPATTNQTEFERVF
T1 sequence (O60563 whole entry partner): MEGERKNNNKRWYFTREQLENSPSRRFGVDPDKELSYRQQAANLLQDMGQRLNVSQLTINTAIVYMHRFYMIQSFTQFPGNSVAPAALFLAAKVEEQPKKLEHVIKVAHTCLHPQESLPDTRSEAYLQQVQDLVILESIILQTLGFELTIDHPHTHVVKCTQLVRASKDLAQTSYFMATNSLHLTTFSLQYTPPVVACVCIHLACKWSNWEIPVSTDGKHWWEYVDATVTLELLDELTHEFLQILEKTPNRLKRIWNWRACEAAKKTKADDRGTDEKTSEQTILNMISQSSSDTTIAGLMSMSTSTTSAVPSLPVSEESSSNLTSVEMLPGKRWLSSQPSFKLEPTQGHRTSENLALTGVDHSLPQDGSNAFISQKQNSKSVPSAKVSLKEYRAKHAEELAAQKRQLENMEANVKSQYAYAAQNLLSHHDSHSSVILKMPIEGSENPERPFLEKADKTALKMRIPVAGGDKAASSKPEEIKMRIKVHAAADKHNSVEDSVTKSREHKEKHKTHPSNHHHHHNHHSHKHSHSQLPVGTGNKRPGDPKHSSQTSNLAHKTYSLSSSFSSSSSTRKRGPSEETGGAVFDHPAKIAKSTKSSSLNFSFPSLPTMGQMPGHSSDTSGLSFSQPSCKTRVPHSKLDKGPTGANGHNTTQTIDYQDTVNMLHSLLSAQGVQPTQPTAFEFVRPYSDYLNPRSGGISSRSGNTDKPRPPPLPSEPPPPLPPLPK

With `CS(=O)(Cc1cc2nc(c1)OCCCOc1cc(F)ccc1-c1cc(ncc1F)N2)=NC(=O)OCCN` (racemic) [Example 25, (rac)-2-aminoethyl [{[15,19-difluoro-3,4-dihydro-2H,11H-10,6-(azeno)-12,16-(metheno)-1,5,11,13-benzodioxadiazacyclooctadecin-8-yl]methyl}(methyl)oxido-λ^6-sulfanylidene]carbamate], the IC50 at CDK9/CycT1 amounted to 3 nM; with HeLa-MaTu-ADR cells (Homo sapiens, 96 h), 32 nM; with NCI-H460 cells (Homo sapiens, NCI-H460, 96 h), 109 nM; with DU145 cells (Homo sapiens, DU-145, 96 h), 123 nM. Besides, at CDK9/CycT1, the “Selectivity high ATP CDK9 over high ATP CDK2: IC50 (high ATP CDK2)/IC50 (high ATP CDK9)” value (“Selectivity high ATP CDK9” below) amounted to 6.1.
Turning to `CS(=N)(=O)Cc1cc2nc(c1)OCCCOc1cc(F)ccc1-c1cc(ncc1F)N2` (single isomer, unassigned; enantiomer 1) [Example 6, 15,19-Difluoro-8-[(S-methylsulfonimidoyl)methyl]-3,4-dihydro-2H,11H-10,6-(azeno)-12,16-(metheno)-1,5,11,13-benzodioxadiazacyclooctadecine; Enantiomer 1], the IC50 came out at 1.1 nM on CDK9/CycT1; 5 nM in the experiment on HeLa-MaTu-ADR cells (Homo sapiens, 96 h); 14 nM in the experiment with NCI-H460 cells (Homo sapiens, NCI-H460, 96 h); 4 nM in the experiment with DU145 cells (Homo sapiens, DU-145, 96 h). The “Selectivity high ATP CDK9” value at CDK9/CycT1 was 35.4.
As to `CS(=N)(=O)Cc1cc2nc(c1)OCCCOc1cc(F)ccc1-c1cc(ncc1F)N2` (single isomer, unassigned; enantiomer 2) [Example 7, 15,19-Difluoro-8-[(S-methylsulfonimidoyl)methyl]-3,4-dihydro-2H,11H-10,6-(azeno)-12,16-(metheno)-1,5,11,13-benzodioxadiazacyclooctadecine; Enantiomer 2], the IC50 against CDK9/CycT1 was 2.6 nM; with HeLa-MaTu-ADR cells, 5 nM; in the experiment on NCI-H460 cells, 17 nM; with DU145 cells it was 5 nM. The “Selectivity high ATP CDK9” value on CDK9/CycT1 was 19.5.
Consider `CSCc1cc2cc(c1)OCCCOc1cc(F)ccc1-c1nc(ncc1F)N2` [Example 2, 15,19-Difluoro-8-[(methylsulfanyl)methyl]-3,4-dihydro-2H,11H-12,16-(azeno)-10,6-(metheno)-1,5,11,13-benzodioxadiazacyclooctadecine], for which the IC50 against CDK9/CycT1 worked out at 4.3 nM; in the experiment with HeLa-MaTu-ADR cells (Homo sapiens, 96 h), 77 nM; in the experiment on NCI-H460 cells (Homo sapiens, NCI-H460, 96 h) it was 56 nM; in the experiment on DU145 cells (Homo sapiens, DU-145, 96 h), 111 nM. Also, the “Selectivity high ATP CDK9” value on CDK9/CycT1 was determined as 149.6.
With `CSCc1cc2nc(c1)OCCCOc1cc(F)ccc1-c1cc(ncc1F)N2` [Example 3, 15,19-Difluoro-8-[(methylsulfanyl)methyl]-3,4-dihydro-2H,11H-10,6-(azeno)-12,16-(metheno)-1,5,11,13-benzodioxadiazacyclooctadecine], the IC50 at CDK9/CycT1 worked out at 4.6 nM; in the experiment with HeLa-MaTu-ADR cells (Homo sapiens, 96 h), 70 nM; in the experiment on NCI-H460 cells (Homo sapiens, NCI-H460, 96 h) it was 39 nM; in the experiment on DU145 cells (Homo sapiens, DU-145, 96 h), 88 nM. In addition, the “Selectivity high ATP CDK9” value on CDK9/CycT1 came out at 28.2.
The like results for `CS(=O)(=O)Cc1cc2nc(c1)OCCCOc1cc(F)ccc1-c1cc(ncc1F)N2` [Example 8, 15,19-difluoro-8-[(methylsulfonyl)methyl]-3,4-dihydro-2H,11H-10,6-(azeno)-12,16-(metheno)-1,5,11,13-benzodioxadiazacyclooctadecine] were, in that order, 2.3 nM, 9 nM, 20 nM, 17 nM and 14.9.
The like results for `CSCc1cc2nc(c1)OCCCCOc1cc(F)ccc1-c1cc(ncc1F)N2` [Example 12, 16,20-Difluoro-9-[(methylsulfanyl)methyl]-2,3,4,5-tetrahydro-12H-11,7-(azeno)-13,17-(metheno)-1,6,12,14-benzodioxadiazacyclononadecine] were, in that order, 11.8 nM, 207 nM, 63 nM, 218 nM and 75.7.
Take `NCCS(=O)(=O)Cc1cc2nc(c1)OCCCOc1cc(F)ccc1-c1cc(ncc1F)N2` [Example 26, 2-({[15,19-difluoro-3,4-dihydro-2H,11H-10,6-(azeno)-12,16-(metheno)-1,5,11,13-benzodioxadiazacyclooctadecin-8-yl]methyl}sulfonyl)ethanamine]: the IC50 against CDK9/CycT1 stood at 3.4 nM; in the experiment on HeLa-MaTu-ADR cells (Homo sapiens, 96 h), 298 nM; with NCI-H460 cells (Homo sapiens, NCI-H460, 96 h), 395 nM; in the experiment on DU145 cells (Homo sapiens, DU-145, 96 h) it was 386 nM. Moreover, on CDK9/CycT1, the “Selectivity high ATP CDK9” value turned out to be 13.0.
Turning to “({[15,19-difluoro-3,4-dihydro-2H,11H-10,6-(azeno)-12,16-(metheno)-1,5,11,13-benzodioxadiazacyclooctadecin-8-yl]methyl}sulfonyl)acetic acid [Example 27]”, the IC50 against CDK9/CycT1 was 1.7 nM; in the experiment with HeLa-MaTu-ADR cells, 1280 nM; with NCI-H460 cells, 3040 nM; in the experiment on DU145 cells, 3360 nM. Moreover, at CDK9/CycT1, the “Selectivity high ATP CDK9” value was determined as 3.7.
